This assay addresses T1, human GPR119 (Homo sapiens, UniProt Q8TDV5).
T1 construct: expressed in transfected cells; host or cells: HEK293
T1 sequence (Q8TDV5 1-335): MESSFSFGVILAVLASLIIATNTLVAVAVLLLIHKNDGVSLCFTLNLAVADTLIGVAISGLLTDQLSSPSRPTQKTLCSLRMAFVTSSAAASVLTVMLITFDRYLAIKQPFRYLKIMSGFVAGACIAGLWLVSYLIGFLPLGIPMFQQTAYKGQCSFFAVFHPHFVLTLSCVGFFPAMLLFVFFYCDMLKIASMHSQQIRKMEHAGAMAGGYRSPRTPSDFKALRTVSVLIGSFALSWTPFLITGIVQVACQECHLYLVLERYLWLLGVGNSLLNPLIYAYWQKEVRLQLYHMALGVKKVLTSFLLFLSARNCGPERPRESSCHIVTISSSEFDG
Nature of the assay: Measurement of GPR119 signaling using LANCE 384-well cAMP kit (LCMP assay). To be noted: HEK293 cells stably transfected with human GPR119. It is filed as cell-based. The protocol: Measurement of GPR119 Signaling Using LANCE 384-Well cAMP Kit (LCMP Assay)
Human embryonic kidney (HEK) 293 cell lines stably transfected with human GPR119 were maintained in DMEM media containing FBS, penicillin-streptomycin, HEPES, and hygromycin. For the cAMP assay, the transfected cells were harvested using a non-enzymatic cell dissociation solution (GIBCO 2672), pelleted and resuspended in stimulation buffer (DMEM, 25 mM Hepes, 0.1% BSA, pH 7.4 in the presence of 100 μM phosphodiesterase inhibitors). The adenylate cyclase assay was constructed following the LANCE™ cAMP Kit (Perkin Elmer, AD0264) instructions. Briefly, cells with Alexa Fluor® 647-anti cAMP antibody were incubated with 10 point series diluted test article in stimulation buffer with a final concentration of 2.5% DMSO for 45 minutes. The reaction was stopped by incubating with the supplied detection buffer containing the europium chelate of the Eu-SA/Biotin-cAMP tracer for 3 hours. The assay was performed in duplicate in a 384 well plate for duplicate plates. Fluorescence at 665 nm was measured using a PHERAstar instrument. Basal activity was determined using a DMSO control and maximum response was defined as cAMP stimulation produced by an internal agonist control. Standard cAMP concentrations were assayed concurrently for conversion of fluorescence signal to cAMP level. The data was analyzed using 4-parameter curve fit in Microsoft Excel.
Background: TR-FRET usually uses a lanthanide donor and a delayed reading to cut background.
One may read the EC50 as the concentration that produces a half-maximal response. Regarding `CCc1cnc(N2CCC([C@@H]3C[C@H]3CCOc3ccc(-n4cnnn4)c(F)c3)CC2)nc1` [Example 39, 5-ethyl-2-(4-((1S,2S)-2-(2-(3-fluoro-4-(1H-tetrazol-1-yl)phenoxy)ethyl)cyclopropyl)piperidin-1-yl)pyrimidine], the 50% effective concentration (EC50) was found to be 8.7 nM.
Then `CCc1cnc(N2CCC([C@@H]3C[C@H]3CCOc3ccc(-n4cnnn4)cc3F)CC2)nc1` [Example 40, 5-ethyl-2-(4-((1S,2S)-2-(2-(2-fluoro-4-(1H-tetrazol-1-yl)phenoxy)ethyl)cyclopropyl)piperidin-1-yl)pyrimidine], with 5 nM.
The result for `Fc1cc(-n2cnnn2)ccc1OCC[C@@H]1C[C@H]1C1CCN(c2ncc(Cl)cn2)CC1` [Example 41, 5-chloro-2-(4-((1S,2S)-2-(2-(2-fluoro-4-(1H-tetrazol-1-yl)phenoxy)ethyl)cyclopropyl)piperidin-1-yl)pyrimidine] reads 5.6 nM; that for `O=C(Cc1ccc(OCC[C@@H]2C[C@H]2C2CCN(c3ncc(Cl)cn3)CC2)cc1F)N1CCC1` [Example 42, 1-(azetidin-1-yl)-2-(4-(2-((1S,2S)-2-(1-(5-chloropyrimidin-2-yl)piperidin-4-yl)cyclopropyl)ethoxy)-2-fluorophenyl)ethanone], 1.8 nM; that for `CCc1cnc(N2CCC([C@H]3C[C@@H]3CCOc3ccc(N4CCNC4=O)c(F)c3)CC2)nc1` [Example 43, 1-(4-(2-((1R,2R)-2-(1-(5-ethylpyrimidin-2-yl)piperidin-4-yl)cyclopropyl)ethoxy)-2-fluorophenyl)imidazolidin-2-one], 9.6 nM.
For the compound `CCc1cnc(N2CCC([C@H]3C[C@@H]3CCOc3ccc(CC(=O)N4CCC4)cc3F)CC2)nc1` [Example 44, 1-(azetidin-1-yl)-2-(4-(2-((1R,2R)-2-(1-(5-ethylpyrimidin-2-yl)piperidin-4-yl)cyclopropyl)ethoxy)-3-fluorophenyl)ethanone], the EC50 turned out to be 2.9 nM.
The result for `CCc1cnc(N2CCC([C@H]3C[C@@H]3CCOc3ccc(CC(=O)N4CCC4)c(F)c3)CC2)nc1` [Example 45, 1-(azetidin-1-yl)-2-(4-(2-((1R,2R)-2-(1-(5-ethylpyrimidin-2-yl)piperidin-4-yl)cyclopropyl)ethoxy)-2-fluorophenyl)ethanone] reads 0.8 nM; that for `CCc1cnc(N2CCC([C@@H]3C[C@H]3CCOc3ccc(CC(=O)N(C)C)c(F)c3)CC2)nc1` [Example 46, 2-(4-(2-((1S,2S)-2-(1-(5-ethylpyrimidin-2-yl)piperidin-4-yl)cyclopropyl)ethoxy)-2-fluorophenyl)-N,N-dimethylacetamide], 4.4 nM; that for `CCc1cnc(N2CCC([C@H]3C[C@@H]3CCOc3ccc(CC(=O)N(C)C)c(F)c3)CC2)nc1` [Example 47, 2-(4-(2-((1R,2R)-2-(1-(5-ethylpyrimidin-2-yl)piperidin-4-yl)cyclopropyl)ethoxy)-2-fluorophenyl)-N,N-dimethylacetamide], 2.9 nM.
The result for `COCc1cnc(N2CCC([C@@H]3C[C@H]3CCOc3ccc(CC(=O)N4CCC4)c(F)c3)CC2)nc1` [Example 48, 1-(azetidin-1-yl)-2-(2-fluoro-4-(2-((1S,2S)-2-(1-(5-(methoxymethyl)pyrimidin-2-yl)piperidin-4-yl)cyclopropyl)ethoxy)phenyl)ethanone] reads 8.5 nM.
The result for `CCc1cnc(N2CCC([C@@H]3C[C@H]3CCOc3cc(F)c(CC(=O)N(C)C)c(F)c3)CC2)nc1` [Example 49, 2-(4-(2-((1S,2S)-2-(1-(5-ethylpyrimidin-2-yl)piperidin-4-yl)cyclopropyl)ethoxy)-2,6-difluorophenyl)-N,N-dimethylacetamide] reads 0.7 nM.
For the compound `CCc1cnc(N2CCC([C@@H]3C[C@H]3CCOc3cc(F)c(CC(=O)N4CCC4)c(F)c3)CC2)nc1` [Example 50, 1-(azetidin-1-yl)-2-(4-(2-((1S,2S)-2-(1-(5-ethylpyrimidin-2-yl)piperidin-4-yl)cyclopropyl)ethoxy)-2,6-difluorophenyl)ethanone], a half-maximal effect (EC50) was put at 0.35 nM.
Take `COCc1cnc(N2CCC([C@H]3C[C@@H]3CCOc3ccc(CC(=O)N4CCC4)c(F)c3)CC2)nc1` [Example 51, 1-(azetidin-1-yl)-2-(2-fluoro-4-(2-((1R,2R)-2-(1-(5-(methoxymethyl)pyrimidin-2-yl)piperidin-4-yl)cyclopropyl)ethoxy)phenyl)ethanone]: a half-maximal effect (EC50) was put at 3.4 nM.
Compound `COCc1cnc(N2CCC([C@@H]3C[C@H]3CCOc3ccc(CC(=O)N(C)C)c(F)c3)CC2)nc1` [Example 52, 2-(2-fluoro-4-(2-((1S,2S)-2-(1-(5-(methoxymethyl)pyrimidin-2-yl)piperidin-4-yl)cyclopropyl)ethoxy)phenyl)-N,N-dimethylacetamide] yielded a concentration giving a half-maximal response (EC50) of 9.6 nM.
The result for `COCc1cnc(N2CCC([C@H]3C[C@@H]3CCOc3ccc(CC(=O)N(C)C)c(F)c3)CC2)nc1` [Example 53, 2-(2-fluoro-4-(2-((1R,2R)-2-(1-(5-(methoxymethyl)pyrimidin-2-yl)piperidin-4-yl)cyclopropyl)ethoxy)phenyl)-N,N-dimethylacetamide] reads 5.9 nM; that for `CCc1cnc(N2CCC([C@H]3C[C@@H]3CCOc3cc(F)c(CC(=O)N4CCC4)c(F)c3)CC2)nc1` [Example 54, 1-(azetidin-1-yl)-2-(4-(2-((1R,2R)-2-(1-(5-ethylpyrimidin-2-yl)piperidin-4-yl)cyclopropyl)ethoxy)-2,6-difluorophenyl)ethanone], 0.25 nM; that for `CCc1cnc(N2CCC([C@H]3C[C@@H]3CCOc3cc(F)c(CC(=O)N(C)C)c(F)c3)CC2)nc1` [Example 55, 2-(4-(2-((1R,2R)-2-(1-(5-ethylpyrimidin-2-yl)piperidin-4-yl)cyclopropyl)ethoxy)-2,6-difluorophenyl)-N,N-dimethylacetamide], 0.34 nM.
On to `COCc1cnc(N2CCC([C@H]3C[C@@H]3CCOc3cc(F)c(CC(=O)N4CCC4)c(F)c3)CC2)nc1` [Example 56, 1-(azetidin-1-yl)-2-(2,6-difluoro-4-(2-((1R,2R)-2-(1-(5-(methoxymethyl)pyrimidin-2-yl)piperidin-4-yl)cyclopropyl)ethoxy)phenyl)ethanone], for which it took 0.4 nM to reach a half-maximal effect (EC50).
Then `COCc1cnc(N2CCC([C@H]3C[C@@H]3CCOc3cc(F)c(CC(=O)N(C)C)c(F)c3)CC2)nc1` [Example 57, 2-(2,6-difluoro-4-(2-((1R,2R)-2-(1-(5-(methoxymethyl)pyrimidin-2-yl)piperidin-4-yl)cyclopropyl)ethoxy)phenyl)-N,N-dimethylacetamide], with 0.63 nM.
The result for `Fc1cc(-n2cnnn2)ccc1OCC[C@H]1C[C@@H]1C1CCN(c2ncc(Cl)cn2)CC1` [Example 58, 5-chloro-2-(4-((1R,2R)-2-(2-(2-fluoro-4-(1H-tetrazol-1-yl)phenoxy)ethyl)cyclopropyl)piperidin-1-yl)pyrimidine] reads 11 nM.
Take `Fc1cc(OCC[C@@H]2C[C@H]2C2CCN(c3ncc(Cl)cn3)CC2)ccc1-n1cnnn1` [Example 59, 5-chloro-2-(4-((1S,2S)-2-(2-(3-fluoro-4-(1H-tetrazol-1-yl)phenoxy)ethyl)cyclopropyl)piperidin-1-yl)pyrimidine]: the 50% effective concentration (EC50) is 13 nM.
The result for `CCc1cnc(N2CCC([C@H]3C[C@@H]3CCOc3ccc(-n4cnnn4)cc3F)CC2)nc1` [Example 60, 5-ethyl-2-(4-((1R,2R)-2-(2-(2-fluoro-4-(1H-tetrazol-1-yl)phenoxy)ethyl)cyclopropyl)piperidin-1-yl)pyrimidine] reads 17 nM; that for `O=C1NCCN1c1ccc(OCC[C@H]2C[C@@H]2C2CCN(c3ncc(Cl)cn3)CC2)cc1F` [Example 61, 1-(4-(2-((1R,2R)-2-(1-(5-chloropyrimidin-2-yl)piperidin-4-yl)cyclopropyl)ethoxy)-2-fluorophenyl)imidazolidin-2-one], 17 nM.
Then `CCc1cnc(N2CCC([C@@H]3C[C@H]3CCOc3ccc(CC(=O)N4CCC4)cc3F)CC2)nc1` [Example 62, 1-(azetidin-1-yl)-2-(4-(2-((1S,2S)-2-(1-(5-ethylpyrimidin-2-yl)piperidin-4-yl)cyclopropyl)ethoxy)-3-fluorophenyl)ethanone], with 11 nM; and `COCc1cnc(N2CCC([C@H]3C[C@@H]3CCOc3ccc(CC(=O)N4CCC4)cc3F)CC2)nc1` [Example 63, 1-(azetidin-1-yl)-2-(3-fluoro-4-(2-((1R,2R)-2-(1-(5-(methoxymethyl)pyrimidin-2-yl)piperidin-4-yl)cyclopropyl)ethoxy)phenyl)ethanone], with 15 nM.
The result for `CC(C)c1noc(N2CCC([C@@H]3C[C@H]3CCOc3ccc(S(C)(=O)=O)c(F)c3)CC2)n1` [Example 65, 5-(4-((1S,2S)-2-(2-(3-fluoro-4-(methylsulfonyl)phenoxy)ethyl)cyclopropyl)piperidin-1-yl)-3-isopropyl-1,2,4-oxadiazole] reads 7.7 nM.

(Values after US20150274664A1 (MERCK SHARP & DOHME CORP., priority 2012, published 2015).)
